{
  "source": "patent US20230023092A1",
  "about": "“TREATMENT OF DEPRESSION AND OTHER VARIOUS DISORDERS WITH PSILOCYBIN” (COMPASS […], priority 2019, published 2023)",
  "origin": "cited, not measured here",
  "system": "subjects",
  "details": "prevalence unknown but likely; cited from earlier work",
  "data": [
    {"smiles": "CN(C)CCc1c[nH]c2cccc(OP(=O)(O)O)c12", "note": "[Psilocybin, psilocybin]", "values": [
      {"measurement": "Frequency of rare side effects: HPPD/flashbacks; worsening of mental state after drug experience", "result": "unknown but likely <2%)"}
    ]}
  ]
}
